The values below come from PubChem BioAssay AID1745844 (Carcinogenic Potency Database (CPDB), 2022).

Structures are written as SMILES. The source made the active and inactive calls. The rule behind the calls is not given here.

The series relates to rodent lifetime carcinogenesis bioassay, tumor incidence TD50. As to the kind of experiment: chronic cancer bioassays in animals – CPDB, compiled studies (AID 1745844).
Where [1] appears, read: mouse, strain B6AKF1, females, oral dosing, site: any site (literature study), lesion: several types, types named in the paper, dosed 76 weeks, study length 76 weeks.
Setting [2] is: mouse, strain B6AKF1, females, oral dosing, site: lung, lesion: adenoma, dosed 76 weeks, study length 76 weeks.
[3] abbreviates: mouse, strain B6AKF1, males, oral dosing, site: any site (literature study), lesion: several types, types named in the paper, dosed 76 weeks, study length 76 weeks.
The mark [4] stands for this setting: mouse, strain B6AKF1, males, oral dosing, site: lung, lesion: adenoma, dosed 76 weeks, study length 76 weeks.
The mark [5] stands for this setting: mouse, strain B6C3F1, females, oral dosing, site: any site (literature study), lesion: several types, types named in the paper, dosed 76 weeks, study length 76 weeks.
[6] abbreviates: mouse, strain B6C3F1, males, oral dosing, site: any site (literature study), lesion: several types, types named in the paper, dosed 76 weeks, study length 76 weeks.
The mark [7] stands for this setting: mouse, strain B6C3F1, males, oral dosing, site: liver, lesion: hepatoma, dosed 76 weeks, study length 76 weeks.
The mark [8] stands for this setting: mouse, strain B6C3F1, males, oral dosing, site: lung, lesion: adenoma, dosed 76 weeks, study length 76 weeks.

Usually TD50 stands for the dose at which the toxic effect under study appears in half of the subjects.

With `Brc1c(Br)c(Br)c(Oc2c(Br)c(Br)c(Br)c(Br)c2Br)c(Br)c1Br`, the carcinogen call by setting is: (mouse, strain B6C3F1, females, in feed, site: any site (literature study), lesion: several types, types named in the paper, dosed 103 weeks, study length 103 weeks) “negative (inactive)”; (rat, strain Sprague-Dawley Spartan, females, in feed, site: liver, lesion: hepatocellular tumor, dosed 105 weeks, study length 105 weeks) “negative (inactive)”; (rat, strain Sprague-Dawley Spartan, males, in feed, site: any site (literature study), lesion: several types, types named in the paper, dosed 100 weeks, study length 100 weeks) “negative (inactive)”; (rat, strain Sprague-Dawley Spartan, males, in feed, site: liver, lesion: hepatocellular tumor, dosed 100 weeks, study length 100 weeks) “negative (inactive)”. Further, the TD50 (mouse, strain B6C3F1, females, in feed, site: liver, lesion: hepatocellular adenoma + hepatocellular carcinoma + neoplastic nodule, dosed 103 weeks, study length 103 weeks) is 33400 mg/kg/day; the TD50 (mouse, strain B6C3F1, males, in feed, site: any site (literature study), lesion: several types, types named in the paper, dosed 103 weeks, study length 103 weeks) came to 9060 mg/kg/day; the TD50 (mouse, strain B6C3F1, males, in feed, site: liver, lesion: hepatocellular adenoma + hepatocellular carcinoma + neoplastic nodule, dosed 103 weeks, study length 103 weeks) is 11200 mg/kg/day; the TD50 (mouse, strain B6C3F1, males, in feed, site: liver, lesion: hepatocellular adenoma + hepatocellular carcinoma, dosed 103 weeks, study length 103 weeks) turned out to be 11200 mg/kg/day; the TD50 (mouse, strain B6C3F1, males, in feed, site: thyroid gland, lesion: follicular-cell adenoma + follicular-cell carcinoma, dosed 103 weeks, study length 103 weeks) was determined as 20500 mg/kg/day; the TD50 (rat, strain Fischer 344, females, in feed, site: any site (literature study), lesion: several types, types named in the paper, dosed 103 weeks, study length 104 weeks) was determined as 4380 mg/kg/day. For the same compound, the TD50 is 6580 mg/kg/day (rat, strain Fischer 344, females, in feed, site: liver, lesion: hepatocellular adenoma + hepatocellular carcinoma + neoplastic nodule, dosed 103 weeks, study length 104 weeks); 6580 mg/kg/day (rat, strain Fischer 344, females, in feed, site: liver, lesion: hepatocellular carcinoma + neoplastic nodule, dosed 103 weeks, study length 104 weeks); 7740 mg/kg/day (rat, strain Fischer 344, females, in feed, site: liver, lesion: neoplastic nodule, dosed 103 weeks, study length 104 weeks); 2230 mg/kg/day (rat, strain Fischer 344, males, in feed, site: any site (literature study), lesion: several types, types named in the paper, dosed 103 weeks, study length 104 weeks); 2220 mg/kg/day (rat, strain Fischer 344, males, in feed, site: liver, lesion: hepatocellular adenoma + hepatocellular carcinoma + neoplastic nodule, dosed 103 weeks, study length 104 weeks); 2220 mg/kg/day (rat, strain Fischer 344, males, in feed, site: liver, lesion: hepatocellular carcinoma + neoplastic nodule, dosed 103 weeks, study length 104 weeks). Also, the TD50 (rat, strain Fischer 344, males, in feed, site: liver, lesion: neoplastic nodule, dosed 103 weeks, study length 104 weeks) was 2130 mg/kg/day; the TD50 (rat, strain Fischer 344, males, in feed, site: pancreas, lesion: acinar-cell adenoma, dosed 103 weeks, study length 104 weeks) is 13900 mg/kg/day; the TD50 (rat, strain Sprague-Dawley Spartan, females, in feed, site: any site (literature study), lesion: several types, types named in the paper, dosed 105 weeks, study length 105 weeks) is 0.987 mg/kg/day (inactive).
As to `CCCN(N)C=O`, the TD50 is, setting by setting: (mouse, strain Swiss albino, females, in drinking water, site: gall bladder, lesion: adenoma, dosed 75 weeks, study length 79 weeks) 497 mg/kg/day; (mouse, strain Swiss albino, females, in drinking water, site: gall bladder, lesion: several types, types named in the paper, dosed 75 weeks, study length 79 weeks) 444 mg/kg/day; (mouse, strain Swiss albino, females, in drinking water, site: liver, lesion: several types, types named in the paper, dosed 75 weeks, study length 79 weeks) 215 mg/kg/day; (mouse, strain Swiss albino, females, in drinking water, site: lung, lesion: several types, types named in the paper, dosed 75 weeks, study length 79 weeks) 8.74 mg/kg/day; (mouse, strain Swiss albino, males, in drinking water, site: lung, lesion: several types, types named in the paper, dosed 51 weeks, study length 61 weeks) 8.84 mg/kg/day; (mouse, strain Swiss albino, males, in drinking water, site: preputial gland, lesion: several types, types named in the paper, dosed 51 weeks, study length 61 weeks) 60.4 mg/kg/day. This compound had a TD50 (mouse, strain Swiss albino, males, in drinking water, site: preputial gland, lesion: squamous-cell carcinoma, dosed 51 weeks, study length 61 weeks) of 75.7 mg/kg/day.
Turning to `Nc1ccc(Nc2ccccc2)cc1`, the carcinogen call (mouse, strain B6C3F1, females, in feed, site: any site (literature study), lesion: several types, types named in the paper, dosed 48 weeks, study length 91 weeks) was “negative (inactive)”; the carcinogen call (mouse, strain B6C3F1, males, in feed, site: any site (literature study), lesion: several types, types named in the paper, dosed 48 weeks, study length 91 weeks) was “negative (inactive)”; the carcinogen call (rat, strain Fischer 344, females, in feed, site: any site (literature study), lesion: several types, types named in the paper, dosed 78 weeks, study length 104 weeks) was “negative (inactive)”. Also, the TD50 was 213 mg/kg/day (mouse, strain B6C3F1, males, in feed, site: liver, lesion: hepatocellular adenoma + hepatocellular carcinoma + neoplastic nodule, dosed 48 weeks, study length 91 weeks) and 161 mg/kg/day (inactive) (rat, strain Fischer 344, males, in feed, site: any site (literature study), lesion: several types, types named in the paper, dosed 78 weeks, study length 104 weeks).
With `Cc1csc(NNC=O)n1`, the TD50 is 14.4 mg/kg/day (rat, strain Sprague-Dawley, females, in feed, site: any site (literature study), lesion: several types, types named in the paper, dosed 46 weeks, study length 64 weeks) and 14.4 mg/kg/day (rat, strain Sprague-Dawley, females, in feed, site: mammary gland, lesion: adenofibroma, dosed 46 weeks, study length 64 weeks).
For the compound `Clc1ccc(C(c2ccc(Cl)cc2)C(Cl)Cl)cc1`, the TD50 was 37.4 mg/kg/day under setting [1]; 73 mg/kg/day under setting [2]; 49 mg/kg/day under setting [3]; 82.9 mg/kg/day under setting [4]; 108 mg/kg/day (inactive) (mouse, strain B6C3F1, females, in feed, site: any site (literature study), lesion: several types, types named in the paper, dosed 78 weeks, study length 90 weeks); 493 mg/kg/day (mouse, strain B6C3F1, females, in feed, site: liver, lesion: hepatocellular adenoma + hepatocellular carcinoma + neoplastic nodule, dosed 78 weeks, study length 90 weeks). Further, the TD50 is 250 mg/kg/day under setting [5]; 250 mg/kg/day (mouse, strain B6C3F1, females, oral dosing, site: lung, lesion: adenoma, dosed 76 weeks, study length 76 weeks); 997 mg/kg/day (inactive) (mouse, strain B6C3F1, males, in feed, site: any site (literature study), lesion: several types, types named in the paper, dosed 78 weeks, study length 90 weeks); 116 mg/kg/day (mouse, strain B6C3F1, males, in feed, site: liver, lesion: hepatocellular adenoma + hepatocellular carcinoma + neoplastic nodule, dosed 78 weeks, study length 90 weeks); 34.8 mg/kg/day under setting [6]; 43.3 mg/kg/day under setting [7]. In addition, the TD50 by setting is: under setting [8], 120 mg/kg/day; (mouse, strain CF-1, females, in feed, site: any site (literature study), lesion: several types, types named in the paper, dosed 123 weeks, study length 123 weeks) 67.1 mg/kg/day; (mouse, strain CF-1, females, in feed, site: liver, lesion: hepatoma, dosed 123 weeks, study length 123 weeks) 4830 mg/kg/day (inactive); (mouse, strain CF-1, females, in feed, site: lung, lesion: several types, types named in the paper, dosed 123 weeks, study length 123 weeks) 39.9 mg/kg/day; (mouse, strain CF-1, males, in feed, site: any site (literature study), lesion: several types, types named in the paper, dosed 123 weeks, study length 123 weeks) 33.2 mg/kg/day; (mouse, strain CF-1, males, in feed, site: liver, lesion: hepatoma, dosed 123 weeks, study length 123 weeks) 86.8 mg/kg/day. Besides, the TD50 is, setting by setting: (mouse, strain CF-1, males, in feed, site: lung, lesion: several types, types named in the paper, dosed 123 weeks, study length 123 weeks) 24.9 mg/kg/day; (rat, strain Osborne-Mendel, females, in feed, site: liver, lesion: hepatocellular adenoma + hepatocellular carcinoma + neoplastic nodule, dosed 78 weeks, study length 111 weeks) 2080 mg/kg/day; (rat, strain Osborne-Mendel, males, in feed, site: any site (literature study), lesion: several types, types named in the paper, dosed 78 weeks, study length 111 weeks) 82.6 mg/kg/day; (rat, strain Osborne-Mendel, males, in feed, site: thyroid gland, lesion: follicular-cell adenoma + follicular-cell carcinoma, dosed 78 weeks, study length 111 weeks) 75.8 mg/kg/day. Moreover, the carcinogen call (rat, strain Osborne-Mendel, females, in feed, site: any site (literature study), lesion: several types, types named in the paper, dosed 78 weeks, study length 111 weeks) is “negative (inactive)”.
`Cn1cc(C(=O)O)c(=O)c2ccc(/C=C/c3ccc([N+](=O)[O-])o3)nc21`: the TD50 is, setting by setting: (mouse, strain ICR/Jcl, both sexes, in feed, site: forestomach, lesion: squamous-cell carcinoma, dosed 54 weeks, study length 54 weeks) 10.3 mg/kg/day; (mouse, strain ICR/Jcl, both sexes, in feed, site: lung, lesion: adenoma, dosed 54 weeks, study length 54 weeks) 8.03 mg/kg/day; (mouse, strain ICR/Jcl, both sexes, in feed, site: lung, lesion: carcinoma, dosed 54 weeks, study length 54 weeks) 21.9 mg/kg/day; (mouse, strain ICR/Jcl, both sexes, in feed, site: thymus gland, lesion: lymphatic leukemia, dosed 54 weeks, study length 54 weeks) 26.5 mg/kg/day.
Consider `c1ccc2cc(Nc3ccc(Nc4ccc5ccccc5c4)cc3)ccc2c1`, for which the TD50 under setting [1] was 63.8 mg/kg/day (inactive); the TD50 under setting [2] was 221 mg/kg/day (inactive); the TD50 under setting [5] was 235 mg/kg/day (inactive); the TD50 under setting [6] was 25.9 mg/kg/day (inactive); the TD50 under setting [7] is 59.4 mg/kg/day (inactive); the TD50 under setting [8] was 192 mg/kg/day (inactive). Moreover, the carcinogen call runs as follows: (mouse, strain B6AKF1, females, oral dosing, site: liver, lesion: hepatoma, dosed 76 weeks, study length 76 weeks) “negative (inactive)”; under setting [3], “negative (inactive)”; (mouse, strain B6AKF1, males, oral dosing, site: liver, lesion: hepatoma, dosed 76 weeks, study length 76 weeks) “negative (inactive)”; under setting [4], “negative (inactive)”; (mouse, strain B6C3F1, females, oral dosing, site: liver, lesion: hepatoma, dosed 76 weeks, study length 76 weeks) “negative (inactive)”; (mouse, strain B6C3F1, females, oral dosing, site: lung, lesion: several types, types named in the paper, dosed 76 weeks, study length 76 weeks) “negative (inactive)”.
